This note sets out measurements from patent US20140378378A1, “ERYTHROPOIETIN-DERIVED PEPTIDE AND USE THEREFOR” (priority 2011, published 2014).

The test system of one test is cardiomyocytes. In words: Cell survival of cardiomyocytes, MTT assay, 72 hours in PBS free of serum and nutrients, hypoxic condition. The format is cell-based, Wister rat. The note with it: 0 nM = 100%. The method, then:
An 8 weeks old Wister rat was injected with ketamine and pentobarbital to quickly kill the […], and the heart was quickly separated from the mouse. An aorta was used to perfuse with Ca free Krebs-Henseleit buffer (KHB) solution, which was pre-heated to a temperature of about 34° C. to about 37° C., in heart direction. Thereafter, the KHB solution was switched to Hank's balanced salt solution (HBSS:GIBCO, Grand Island, N.Y.) containing 0.15% class II collagenase (Cooper Biomedical, Malvern, Pa.) and then perfused for about 30 to about 40 minutes. Thereafter, the product obtained therefrom was washed twice with a cell culture medium (Dulbecco's modified Eagle's medium, DMEM). Ventricles and atria were separated therefrom, ventricular tissues were thoroughly chopped and then stirred thoroughly for about 5 minutes in a shaker filled with cell culture medium (DMEM) containing class II collagenase that was pre-heated to a temperature of about 34° C. to about 37° C. Connective tissues that were not dissolved were filtered and a collagenase-containing solution was washed twice with the cell culture medium (DMEM). The product obtained therefrom was gently centrifuged at a speed of 10 g for 2 minutes, a supernatant obtained therefrom was separated and removed, and cell components were washed three times with a cell culture medium (DMEM) solution containing 1% fetal bovine serum (FBS; Sigma Chemical, St. Louis, Mo.). Thereafter, the cells obtained therefrom were stabilized in a cell culture medium (DMEM), 10% FBS, 10 mM N-2-hydroxyethylpiperazine-N′-2-ethanesulfonic acid (HEPES, GIBCO Laboratories, Grand Island, N.Y.), 2 mM L-glutamine, penicilin-stereptomycin (100 IU/mL, GIBCO) for 60 minutes.
Thereafter, the cells were divided in a 6-well plate at a density of 20×10^3 cells/cm^2 and then bromodeoxyuridine (BrdU, 10 uM, Sigma-Aldrich) was added to the cell culture medium over 3 days to prevent the proliferation of fibroblasts and progenitor cells (Lokuta et al, 1994; Miragoli et al., 2006). The cells were cultured in an incubator under conditions of 95% of O2, 5% of CO2, and a temperature of 37° C. for the next experiment.
Cells were seeded in a 96-well plate at a density of 2×10^4 cells/well and 200 ul for each well. In this regard, cell confluence was set at about 70% to about 80%. After 24 hours, when the cells have been stabilized, a 26 gauge or 28 gauge needle was used to remove a preexisting medium from the wells. 200 ul of PBS free of serum and nutrients was added to each well, the wells were divided into erythropoietin (EPO) treatment groups and MKX-2 treatment groups, which were further divided into experimental groups according to concentrations of 0 nM, 0.1 nM, 1 nM, 10 nM, 100 nM, and 1000 nM and then treated with a drug for 72 hours in a hypoxic condition, and then the cells were subjected to an MTT assay to compare cell survival rates. The EPO used was an Eporon injection (Dong-A Pharmaceuticals, Korea). All experimental groups for each concentration included 7 wells.
After a predetermined treatment time, 3-[4,5-dimethylthiazol-2-yl]-2,5-diphenyl tetrazolium bromide (MIT, Sigma, M2128) that was dissolved in a phosphate buffered saline (PBS) and then sterilization filtered by using a membrane filter having a thickness of 0.22 um was added to each well in an amount of 100 ul at a concentration of 1 mg/ml. In this regard, an MTT reagent was used after wrapping the MTT reagent with a foil sheet to block from light. […]

In test [1] the test system is cerebral infarction induced Sprague-Dawley rat models. Briefly: Cerebral infarction animal experiment: middle cerebral artery blockage/reperfusion, infarct volume by TTC dye. It counts as in vivo. The note with it: 3000 IU/kg EPO injected right after reperfusion, measured after 24 hours. An excerpt: In the present experiment, Spague-Dawley (SD) rats weighing about 280 g to about 330 g were used, which were purchased from Koatech Inc. (Seoul, Korea). The number of rats used was 39, wherein 13 of them were used as a control group and another 26 were divided into 13 in a MKX-2 treatment group and 13 in an EPO treatment group.
To induce cerebral infarction, a method of temporarily blocking a left middle cerebral artery and then reperfusing the same was used, and an intraluminal filament technique, which was modified from the Koizumi method was used. Then, each SD rat was anesthetized with a mixture gas of 70% nitrous oxide and 30% oxygen along with isoflurane (3% for induction and 2% for surgical procedure). During the surgery, an excision was made slightly leftwards from the center of the neck and the left common carotid artery was carefully separated without damaging surrounding vagus nerves. […]
The cerebral infarction area was measured by an image analyzer with LeicaQwin program (Leica Microsystem Image Solution Ltd., Cambridge, England) and a volume (mm^3) was calculated as a sum of infarct volumes (=infarct area of a slice×thickness) of the slices, and then an average and a standard deviation were calculated for each experimental group. […]

As to “EPO: erythropoietin; the EPO used was an Eporon injection (Dong-A Pharmaceuticals, Korea)”, the “cell survival rate compared with 0 nM” value in the test with cardiomyocytes (0.1 nM) is recorded as “not substantially different”. Moreover, the “cell survival rate compared with the initial condition” value in the test on cardiomyocytes (1 nM) is reported as “substantially decreased”. Also, the results for the cell survival rate in the test on cardiomyocytes (10 nM), in the test on cardiomyocytes (100 nM) and in the test on cardiomyocytes (1000 nM) were 94.52 ± 4.36%, 102.64 ± 2.69% and 106.97 ± 1.99%, respectively. The “volume of cerebral infarction” value in test [1] was determined as 246.27 ± 37.52 mm^3.
